Assays:
[1] = test system: Hep3B liver cancer cells vs L02 or Chang normal liver cells; test: Comparison of fluorescence intensity between normal cells and cancer cells; assay type: cell-based, human; settings: 1 μM, 1 h
Procedure: (a) Cells were incubated with full growth media containing SiR-Mito 8 (1 μM) and Hoechst dye (0.01 μg/ml) for 1 h. The cells were washed 3 times with growth media and observed with a LEICA DMi8 fluorescent microscope. […] (b) Quantification of the fluorescence intensity of SiR-Mito 8 in L02, Chang liver and in Hep3B cells. Scale bar: 50 μm.
Therefore, the present inventors envisioned that SiR-Mito 8 could differentiate cancer cells from normal cells without involving ligand conjugation. For fluorescent tumor imaging, human liver cancer Hep3B cells and the human hepatocyte line L02 were incubated with 1.0 μM SiR-Mito 8 for 1 hour, washed three times with cell growth media, and imaged using a LEICA DMi8 fluorescence microscope.
Specifically, Hep3B human liver cancer cells were cultured in Dulbecco's modified eagle media (DMEM, GIBCO) containing 10% fetal bovine serum (FBS, GIBCO) and 1% penicillin (GIBCO), and L02 or Chang human liver normal cells were cultured in Roswell Park Memorial Institute (RPMI, CAPRICORN) 1640 with L-Glutamine containing 10% FBS (GIBCO) and 1% Penicillin (HyClone) at 37° C. in a humidified incubator with 5% CO2. For the fluorescence microscope imaging, cells were harvested using TrypLE™ Express (GIBCO) and resuspended in fresh culture medium. […] Cells were washed with cell culture media for three times and observed with inverted fluorescence microscope (DMi8, LEICA).

[2] = Photophysical properties (excitation/emission wavelength, absolute quantum yield, fluorescence intensity in PBS); assay type: physicochemical
Procedure: All reactions were carried out under an atmosphere of nitrogen or argon in air-dried glassware with magnetic stirring. Air- and/or moisture-sensitive liquids were transferred with syringe. Organic solutions were concentrated by rotary evaporation at 25-60° C. at 15-30 torr. All solvents and common materials were purchased from suppliers and used without further purification. Column chromatography was carried out as “Flash Chromatography” using Biotage MPLC machine. ^1H NMR and ^13C NMR data were recorded on an JEOL ECZ-600R Magnetic Resonance System (600 MHz) in Ajou University. Recorded shifts are reported in parts per million (6): Chemical shift, multiplicity (s=singlet, d=doublet, t=triplet, q=quartet, m=multiplet, br=broad), coupling constant (J, Hz) and integration. Low resolution mass spectrometry (LRMS) was obtained by LC/MS system, Finnigan MSQplus Surveyer (Thermo Scientific) or 6120 Quadrupole LC/MS (Agilent Technologies). The progress of reaction was monitored using thin layer chromatography (TLC) (silica gel 60, F254 0.25 mm), and components were visualized by observation under UV light (254 and 365 nm) or by treating the TLC plates with Phosphonolybdic acid (PMA), KMnO4, or ninhydrin followed by heating. Cell culture reagents including fatal bovine serum, culture media, and antibiotic-antimycotic solution were purchased from GIBCO. MitoTracker Green, and Hoechst were purchased from Invitrogen. The culture dish and glassbottom dish were purchased from CORNING, and SPL. All spectra experiments were performed in a 1×1 cm quartz cuvette. Fluorescence emission spectra were recorded on JASCO FP-8200 spectrofluorometer, and UV absorption spectra were recorded on JASCO V-670 spectrophotometer. Absolute quantum yield was measured by QE-2000 (Otsuka Electronics).

HeLa, and Hep3B cells = test: High-resolution live cell imaging of SiR-Mito 8 with MitoTracker green; assay type: cell-based, human; settings: 1 μM, 60 min
Procedure: (a) HeLa and Hep3B cells were incubated with MitoTracker Green (0.5 μM), and SiR-Mito 8 (1 μM) for 1 h. After washing 3 times with fresh media, fluorescent live cell images were acquired with LEICA DMi8 microscope. (MitoTracker green: FITC channel, SiR-Mito 8: Cy 5 channel, Scale bar: 15 μm); (b) Chang liver cells expressing mitochondrial YFP were incubated with SiR-Mito 8 (1 μM) for 1 h. After washing 3 times with fresh media, fluorescent live cell images were acquired with LEICA DMi8 microscope. (Mitochondrial-YFP: Rhodamine channel, Scale bar: 15 μm).
Mitochondrial specificity in live cells labeled with SiR-Mito 8 and MitoTracker green was examined by high-resolution imaging.
To this end, HeLa, and Hep3B cells were cultured in Dulbecco's modified eagle media (DMEM, GIBCO) containing 10% fetal bovine serum (FBS, GIBCO) and 1% penicillin (GIBCO) at 37° C. in a humidified incubator with 5% CO2. For the fluorescence microscope imaging, cells were harvested using TrypLE™ Express (GIBCO) and resuspended in fresh culture medium. Harvested cells were seeded on a confocal dish with a density of 4.0×10^4 cells/well. After 24 h incubation, cells were incubated with SiR-Mito 8 (1 μM) and Mitotracker green (0.5 uM) for 60 min. Cells were washed three times with 1×PBS and observed with inverted fluorescence microscope (DMi8, LEICA).

N-(10-(5-((cyclooctylmethyl) carbamoyl)-2-methylphenyl)-7-(dimethylamino)-5,5-dimethyldibenzo[b,e]silin-3(5H)-ylidene)-N-methylmethanaminium [SiR-Mito 8]
Fluorescence intensity in cancer cells versus normal cells [1]: higher fluorescence intensity than normal cells
Em (emission wavelength) [2]: 668 nm
Ex (excitation wavelength) [2]: 651 nm
Φ (quantum yield) ([2]; absolute quantum yield): 0.33
Mitochondrial specificity in live cells (co-expression with MitoTracker green) (HeLa, and Hep3B cells): highly co-expressed

Source: patent US11761894B2, “Silicon-rhodamine fluorescent probe containing hydrophobic group and use thereof” (AJOU UNIVERSITY INDUSTRY—ACADEMIC COOPERATION FOUNDATION, priority 2019, dated 2023)
